According to patent US8101766B2, “Crystalline form of a biphenyl compound” (Theravance, Inc., priority 2004, dated 2012):

How the values were obtained:
[1] = biological target: T1, hM2 receptor (Homo sapiens, UniProt P08172); assay: Blockade of oxotremorine-stimulated [35S]GTPγS binding in CHO-K1 cells expressing the hM2 receptor; type: biochemical
T1 construct: expressed in transfected cells
T1 sequence (P08172 1-466): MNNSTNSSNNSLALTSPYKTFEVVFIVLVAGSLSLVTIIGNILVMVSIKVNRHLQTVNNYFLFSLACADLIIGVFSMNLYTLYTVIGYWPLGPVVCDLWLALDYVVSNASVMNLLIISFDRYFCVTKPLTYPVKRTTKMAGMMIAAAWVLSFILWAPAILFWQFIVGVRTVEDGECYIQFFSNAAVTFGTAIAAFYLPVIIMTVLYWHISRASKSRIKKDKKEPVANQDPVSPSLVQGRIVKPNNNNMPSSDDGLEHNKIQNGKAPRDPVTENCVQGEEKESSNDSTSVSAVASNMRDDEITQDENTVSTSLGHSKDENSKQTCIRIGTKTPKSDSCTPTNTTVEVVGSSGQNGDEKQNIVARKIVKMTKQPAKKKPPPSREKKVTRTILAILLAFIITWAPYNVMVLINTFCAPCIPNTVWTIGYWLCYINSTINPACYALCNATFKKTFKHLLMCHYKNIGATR
Method: A. Blockade of Agonist-Mediated [^35S]GTPγS Binding
The functional potency of a test compound was determined by measuring the ability of the compound to block oxotremorine-stimulated [^35S]GTPγS binding in CHO-K1 cells expressing the hM2 receptor.
At the time of use, frozen membranes were thawed and then diluted in assay buffer with a final target tissue concentration of 5-10 μg protein per well. The membranes were briefly homogenized using a Polytron PT-2100 tissue disrupter and then added to the assay plates.
The assay plates were then incubated at 37° C. for 60 minutes. The assay plates were filtered over 1% BSA-pretreated GF/B filters using a PerkinElmer 96-well harvester. The plates were rinsed with ice-cold wash buffer for 3×3 seconds and then air or vacuum dried. Microscint-20 scintillation liquid (50 μL) was added to each well, and each plate was sealed and radioactivity counted on a Topcounter (PerkinElmer). Data were analyzed by nonlinear regression analysis with the GraphPad Prism Software package (GraphPad Software, Inc., San Diego, Calif.) using the non-linear regression, one-site competition equation. The Cheng-Prusoff equation was used to calculate the Ki, using the IC50 values of the concentration-response curve for the test compound and the oxotremorine concentration in the assay as the KD and [L], ligand concentration, respectively.

[2] = test system: MCh-induced bronchoconstriction; assay: Bronchoprotection in guinea pig model of acetylcholine-induced bronchoconstriction; type: in vivo; details: inhalation
Method: (§1) Duration of Bronchoprotection in Guinea Pig Models of Acetylcholine-Induced or Histamine-Induced Bronchoconstriction
(§2) To isolate muscarinic antagonist activity in the acetylcholine-induced bronchoconstriction model, the animals were administered propanolol, a compound that blocks β receptor activity, prior to the administration of acetylcholine. Duration of bronchoprotection in the histamine-induced bronchoconstriction model reflects β2 adrenergic receptor agonist activity.
(§3) Groups of 6 male guinea pigs (Duncan-Hartley (HsdPoc:DH) Harlan, Madison, Wis.) weighing between 250 and 350 g were individually identified by cage cards. Throughout the study, animals were allowed access to food and water ad libitum.
(§4) Test compounds were administered via inhalation over 10 minutes in a whole-body exposure dosing chamber (R&S Molds, San Carlos, Calif.). […] This value was measured gravimetrically by comparing pre- and post-nebulization weights of the filled nebulizer.
(§5) The bronchoprotective effects of test compounds administered via inhalation were evaluated using whole body plethysmography at 1.5, 24, 48 and 72 hours post-dose. […]
(§6) Once it was determined that baseline values were within the range of 0.3-0.9 mL/cm H2O for compliance and within the range of 0.1-0.199 cm H2O/mL per second for resistance, the pulmonary evaluation was initiated. […]

[3] = test system: His-induced bronchoconstriction; assay: Bronchoprotection in guinea pig model of histamine-induced bronchoconstriction; type: in vivo; details: inhalation
Method: as §1, §2, §3, §4, §5, §6

COc1cc(NC(=O)CCN2CCC(OC(=O)Nc3ccccc3-c3ccccc3)CC2)c(Cl)cc1CNC[C@H](O)c1ccc(O)c2[nH]c(=O)ccc12 [compound of formula I, biphenyl-2-ylcarbamic acid 1-[2-(2-chloro-4-{[(R)-2-hydroxy-2-(8-hydroxy-2-oxo-1,2-dihydroquinolin-5-yl)ethylamino]methyl}-5-methoxyphenylcarbamoyl)ethyl]piperidin-4-yl ester]
Ki [1]: < 10 nM
bronchoprotective effect against MCh-induced bronchoconstriction [2]: dose-dependent bronchoprotective effect
bronchoprotective effect against His-induced bronchoconstriction [3]: dose-dependent bronchoprotective effect
